Values quoted from earlier work in patent US20170020817A1, “SOLID NANOPARTICLE FORMULATION OF MICROTUBLE INHIBITORS WITH REDUCED OSTWALD REPENING FOR ORAL ADMINISTRATION” (Luminus Biosciences, Inc., priority 2013, published 2017).

Legend:
[1] = system: microtubules; conditions: most test systems

Row | solubility in water | SMILES | effectiveness relative to epothilone A [1]
1 | about 8 mg/L | CO[C@H]1C(=O)[C@]2(C)[C@@H](OC)C[C@H]3OC[C@@]3(OC(C)=O)[C@H]2[C@H](OC(=O)c2ccccc2)[C@]2(O)C[C@H](OC(=O)[C@H](O)[C@@H](NC(=O)OC(C)(C)C)c3ccccc3)C(C)=C1C2(C)C [cabazitaxel] | –
2 | about 14 mg/L | CC(=O)O[C@@]12CO[C@@H]1C[C@H](O)[C@@]1(C)C(=O)[C@H](O)C3=C(C)[C@@H](OC(=O)[C@H](O)[C@@H](NC(=O)OC(C)(C)C)c4ccccc4)C[C@@](O)([C@@H](OC(=O)c4ccccc4)[C@H]21)C3(C)C [docetaxel] | –

Second part, the compound before the results:

Row | SMILES | solubility in water | effectiveness relative to epothilone A [1]
3 | C/C(=C\c1csc(C)n1)[C@@H]1C[C@@H]2O[C@]2(C)CCC[C@H](C)[C@H](O)[C@@H](C)C(=O)C(C)(C)[C@@H](O)CC(=O)N1 [Ixabepilone] | about 3.5 mg/L | –
4 | C/C(=C\c1csc(C)n1)[C@@H]1C[C@@H]2O[C@]2(C)CCC[C@H](C)[C@H](O)[C@@H](C)C(=O)C(C)(C)[C@@H](O)CC(=O)O1 [epothilone B] | – | approximately ten-time more effective
5 | CC(=O)O[C@H]1C(=O)[C@@]2(C)[C@H]([C@H](OC(=O)c3ccccc3)[C@]3(O)C[C@H](OC(=O)[C@H](O)[C@@H](NC(=O)c4ccccc4)c4ccccc4)C(C)=C1C3(C)C)[C@]1(OC(C)=O)CO[C@@H]1C[C@@H]2O [paclitaxel] | about 0.4 mg/L | –
